Experimental data from patent US20210045387A1, “COMPOSITIONS AND METHODS TO INHIBIT ARTHROPOD HOST-SEEKING BEHAVIOR” (The Rockefeller University, priority 2019, published 2021).

Experiments:
[1] = tested on: human NPY receptors; test: Cell-based GCaMP6s assay of human NPY receptor activation; details: HEK cells, GCaMP6s readout, FIG. 2
From the text: (§1) The six compounds were screened in vitro against the panel of all 49 known Ae. aegypti peptide receptors from both L3 and L5 genome annotations, as well as human NPY receptors. FIG. 2 illustrates the level of activation of related NPY-like receptors by Ae. aegypti NPYLR7 agonists in a variety of organisms in a cell-based assay. HEK cells were transfected with receptor cDNA, promiscuous Gα subunit, and GCaMP6s. Activation was read out as increase in GFP fluorescence and EC50 values were calculated on a 6 point dose-response curve (FIG. 2). The vertical axis of each box represents NPY-related receptors for each organism: for instance, Ae. aegypti has three receptors that were tested in this assay, while Ae. Albopictus has four. […] Albopictus. The horizontal axis indicates the compound tested. […] Compounds 6, 7, 2, 5, 1, and 9 were also tested.

[2] = tested on: NPY-like receptors in non-human organisms; test: Cell-based GCaMP6s assay of related NPY-like receptors from a variety of organisms; details: HEK cells, GCaMP6s readout, FIG. 2
From the text: as §1

[3] = tested on: Aedes albopictus mosquitoes; test: Miniport olfactometer host-seeking assay in Aedes albopictus; format: in vivo; details: two days after feeding, FIG. 5
From the text: (§2) Aedes albopictus host-seeking in a miniport olfactometer two days after feeding the indicated meals (n=6-34, 15-25 females/trial) is shown in FIG. 5. Data are plotted as median with range.

[4] = tested on: Aedes albopictus NPY-like receptors; test: Cell-based GCaMP6s assay of Aedes albopictus NPY-like receptors; details: FIG. 2
From the text: as §1, §2

[5] = tested on: Female mosquitoes; test: Live host assay: blood-feeding on an anesthetized mouse (mark-release-recapture); format: in vivo, Ae. aegypti; details: 100 μM in saline fed two days prior
From the text: Females from each feeding group were separately marked with one of three different paint powders using the “shake in a bag” technique (Verhulst et al., 2013), and all three of these groups were pooled and allowed to recover together in a cage. […] Females were scored for powder color to indicate treatment condition and for the presence of fresh blood in the midgut. Similar to the results in host-seeking assays, non-blood-fed and saline-fed females consumed fresh blood at high levels. In contrast, females that had fed on sheep blood two days prior rarely consumed fresh blood. […] (Compound designations shown as circled numbers.)

SMILES	Activation of human NPY receptors [1]	Activation of NPY-like receptors in non-human organisms [2]	Suppression of host-seeking in Aedes albopictus, miniport olfactometer [3]	Activation of Aedes albopictus NPY-like receptors in vitro [4]	Blood-feeding on a live host (anesthetized mouse) ([5]; 15 minutes access to mouse)	Blood-feeding on a live host, NPYLR7 mutants ([5]; NPYLR7 mutant females)
COc1ccc2nc(N)nc(C)c2c1 [Compound 2]	none of these compounds activates any of the human receptors	activate many of the receptors in non-human organisms				
CC(C)(C)c1cnc(CSc2cnc(NC(=O)C3CCNCC3)s2)o1 [Compound 6]	none of these compounds activates any of the human receptors	activate many of the receptors in non-human organisms	suppresses host-seeking in Aedes albopictus mosquitoes	activates Aedes albopictus NPY-like receptors in vitro		
COc1ccc(CC2c3cc(OC)c(OC)cc3CC[N+]2(C)CCC(=O)OCCCCCOC(=O)CC[N+]2(C)CCc3cc(OC)c(OC)cc3C2Cc2ccc(OC)c(OC)c2)cc1OC (centres unmarked) [Compound 9]	none of these compounds activates any of the human receptors	activate many of the receptors in non-human organisms				
CCc1nc(NC(=N)N)nc2cc(C)ccc12 [Compound 5]	none of these compounds activates any of the human receptors	activate many of the receptors in non-human organisms				
COc1ccc2c(C)nc(NC(=N)N)nc2c1 [Compound 1]	none of these compounds activates any of the human receptors	activate many of the receptors in non-human organisms			very low levels of blood-feeding on a live host	resistant to this effect
